Tested on: hCAR-mediated CYP2B6 promoter
Test: CAR-mediated CYP2B6 promoter luciferase assay in HepG2 cells
Format: cell-based, human
Settings: pcDNA3-CAR-transfected HepG2 cells, 24 h; CITCO 500 nM
Procedure: HepG2 cells (American Tissue Culture Collection, Manassas, VA, USA) were maintained in Dulbecco’s modified Eagle’s essential medium (DMEM), containing 10% fetal bovine serum, 1% nonessential amino acids, 1% GlutaMAX®, and 1% antibiotics/antimycotics at 37 °C in a 5% CO2 atmosphere. The expression plasmid encoding the human constitutive androstane receptor (hCAR; pcDNA3-CAR) and the pGL3-CYP2B6 luciferase construct were kindly provided by Dr. Hongbing Wang (University of Maryland, College Park, MD, USA). The plasmid encoding the human pregnane X receptor (hPXR; pcDNA3-PXR) and the pGL3-CYP3A4 luciferase construct were obtained from Dr. Masahiko Negishi at the National Institutes of Health (Bethesda, MD, USA). Cells were seeded at a density of 1.5 × 10^5 cells/well into a 24-well plate. The next day, the cells were transfected with 0.25 μg of either pcDNA3-CAR or pcDNA3-PXR and 0.25 μg of a promoter luciferase plasmid (either pGL3-CYP2B6 or pGL3-CYP3A4) using Lipofectamine 2000 (Invitrogen, Carlsbad, CA, USA) according to the manufacturer’s instructions. […] The cells were harvested and luciferase activity was measured as described previously.

Clc1ccc(-c2nc3sccn3c2C=NOCc2ccc(Cl)c(Cl)c2)cc1 [CITCO, reference compound]
CYP2B6 luciferase activity increase: 1.5 fold
